From patent publication US20250242043A1, “ANTIBODY-DRUG CONJUGATE COMPRISING ANTIBODY AGAINST HUMAN TROP2 AND USE THEREOF” (priority 2022, published 2025)
Square brackets hold non-standard residues; d marks the D form. Peptide text beside a SMILES is read from it. * marks the point of attachment. Dolaproine = CO[C@@H]([C@@H]1CCCN1)[C@@H](C)C(=O)O; Dil = CC[C@H](C)[C@H](NC)[C@@H](CC(=O)O)OC; X1 = C[C@@H](N*)[C@@H](O)c1ccccc1; NMeV = CN[C@H](C(=O)O)C(C)C

Columns and labels:
Experiment in all cases: In vitro cytotoxicity (cell proliferation inhibition), SRB dye or Cell titer glo
Assay type in all cases: cell-based, human
[1] = system: HT29; details: HT29, 144 hours
Protocol: (§1) The cell proliferation inhibitory activity of the ADC produced according to <Example 2> and the drug alone included in the ADC against cancer cell lines were measured.
(§2) Specifically, human pancreatic cancer cell lines (BxPC-3, Capan-1, and PATU-8988s), breast cancer cell lines (JIMT-1 and MDA-MB-468), gastric cancer cell lines (NCI-N87, SNU-601, and SNU-620), colon cancer cell lines (HCT15, HT29, DLD-1, SW480, and COLO205), an ovarian cancer cell line (OVCAR-3), prostate cancer cell lines (PC-3 and LNCaP), and non-small cell lung cancer cell lines (NCI-H1781, HCC827, Calu-1, and Calu-3), which are commercially available as cancer cell lines, were used. MMAE as a drug alone included in the ADC prepared according to Example 3 and SG2057 (CAS #: 260417-62-7, MedKoo Biosciences) as a PBD dimer were used. 500 cells/well to 5,000 cells/well of each cancer cell line were seeded into a 96-well plate and cultured for 24 hours, and then each of ADC1, ADC2 and ADC3 produced according to Example 3 and the drugs MMAE and SG2057 alone were treated at a concentration of […] to 100 nM (5-fold serial dilution). After 144 hours, the number of living cells was quantified using a sulforhodamine B (SRB) dye or Cell titer glo.

[2] = system: HCT15; details: HCT15, 144 hours
Protocol: as §1, §2

[3] = system: DLD-1; details: DLD-1, 144 hours
Protocol: as §1, §2

[4] = system: BxPC-3; details: BxPC-3, 144 hours
Protocol: as §1, §2

[5] = system: NCI-N87; details: NCI-N87, 144 hours
Protocol: as §1, §2

[6] = system: Patu8988S; details: 144 hours
Protocol: as §1, §2

[7] = system: Calu-3; details: Calu-3, 144 hours
Protocol: as §1, §2

[8] = system: LNCaP; details: 144 hours
Protocol: as §1, §2

[9] = system: OVCAR-3; details: OVCAR-3, 144 hours
Protocol: as §1, §2

[10] = system: JIMT-1; details: JIMT-1, 144 hours
Protocol: as §1, §2

[11] = system: COLO205; details: COLO205, 144 hours
Protocol: as §1, §2

[12] = system: NCI-H1781; details: NCI-H1781, 144 hours
Protocol: as §1, §2

[13] = system: SNU-601; details: SNU-601, 144 hours
Protocol: as §1, §2

[14] = system: Calu-1; details: Calu-1, 144 hours
Protocol: as §1, §2

[15] = system: Capan-1; details: Capan-1, 144 hours
Protocol: as §1, §2

[16] = system: SNU-620; details: SNU-620, 144 hours
Protocol: as §1, §2

[17] = system: HCC827; details: HCC827, 144 hours
Protocol: as §1, §2

[18] = system: MDA-MB-468; details: MDA-MB-468, 144 hours
Protocol: as §1, §2

[19] = system: PC-3; details: PC-3, 144 hours
Protocol: as §1, §2

[20] = system: SW480; details: SW480, 144 hours
Protocol: as §1, §2

`C=C1C[C@H]2C=Nc3cc(OCCCCCOc4cc5c(cc4OC)C(=O)N4CC(=C)C[C@H]4C=N5)c(OC)cc3C(=O)N2C1` [SG2057] was tested, and the CC50 [1] was 0.02 nM, the CC50 [2] was 0.161 nM and the CC50 [3] was 0.05 nM.
Compound `CC[C@H](C)[C@@H]([C@@H](CC(=O)N1CCC[C@H]1[C@H](OC)[C@@H](C)C(=O)N[C@H](C)[C@@H](O)c1ccccc1)OC)N(C)C(=O)[C@@H](NC(=O)[C@@H](NC)C(C)C)C(C)C` [MMAE, monomethyl auristatin E] (H-[NMeV]V[Dil][Dolaproine]-X1) has a CC50 [4] of 0.606 nM, a CC50 [5] of 0.725 nM and a CC50 [6] of 0.334 nM. For the same compound, the CC50 [7] was 0.4 nM, the CC50 [8] was 0.551 nM and the CC50 [9] was 0.304 nM. The CC50 [10] was 0.154 nM, the CC50 [1] was 0.33 nM and the CC50 [11] was 0.628 nM. For the same compound, the CC50 [12] was 0.208 nM, the CC50 [13] was 0.268 nM and the CC50 [14] was 0.971 nM. The CC50 [15] was 0.52 nM, the CC50 [2] was 3.87 nM and the CC50 [16] was 0.651 nM. For the same compound, the CC50 [17] was 0.674 nM, the CC50 [18] was 0.64 nM and the CC50 [3] was 8.88 nM. It also gave a CC50 [19] of 0.946 nM and a CC50 [20] of 3.83 nM.
